Measured values as given in patent US20260327221A1, “INHIBITORS OF CYCLIC GMP-AMP SYNTHASE AND USES THEREOF” (Ventus Therapeutics U.S., Inc., priority 2023, published 2026).
pIC50: −log10 of the molar value.

Molecular target: hcGAS (Homo sapiens, UniProt Q8N884)
Experiment: hcGAS LCMS assay (direct measurement of cGAMP production by LC/MS)
Type: biochemical
Conditions: 4 h incubation with enzyme and substrates; cGAMP production by LC/MS; class symbols; read-out: hcGAS LCMS IC50
In short: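 Enzyme, substrates (ATP, GTP) and compound incubated 4 h, then quenched with acetonitrile/water containing 0.15 uM 13C/15N-labeled cGAMP internal standard. cGAMP formed quantified directly by LC/MS on HILIC amide column; IC50 values reported in potency bins.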

Sequence of hcGAS (Q8N884 whole entry): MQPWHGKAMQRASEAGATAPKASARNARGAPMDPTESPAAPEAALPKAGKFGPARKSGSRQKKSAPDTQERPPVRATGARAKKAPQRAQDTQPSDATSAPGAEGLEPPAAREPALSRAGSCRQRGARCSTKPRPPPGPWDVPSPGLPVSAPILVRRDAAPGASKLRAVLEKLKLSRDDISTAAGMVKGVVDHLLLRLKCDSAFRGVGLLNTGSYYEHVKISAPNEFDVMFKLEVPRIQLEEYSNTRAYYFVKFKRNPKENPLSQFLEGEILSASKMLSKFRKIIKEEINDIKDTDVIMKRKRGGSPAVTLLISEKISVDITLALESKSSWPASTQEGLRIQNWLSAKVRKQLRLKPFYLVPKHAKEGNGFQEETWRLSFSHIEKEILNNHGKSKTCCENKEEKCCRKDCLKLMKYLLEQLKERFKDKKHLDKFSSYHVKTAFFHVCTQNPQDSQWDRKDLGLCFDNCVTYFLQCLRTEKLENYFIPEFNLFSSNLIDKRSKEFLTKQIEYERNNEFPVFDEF

pIC50	Compound
> 9.30	COCCOc1c(-c2c(O)cccc2Cl)cc(C(=O)Nc2nnc(-n3nccc3N)s2)oc1=O [Compound 41, N-(5-(5-amino-1H-pyrazol-1-yl)-1,3,4-thiadiazol-2-yl)-4-(2-chloro-6-hydroxyphenyl)-3-(2-methoxyethoxy)-2-oxo-2H-pyran-6-carboxamide]
9.00 to 9.30	COc1cccc(OC)c1-c1cc(C(=O)Nc2nnc(-n3nccc3N)s2)oc(=O)c1OCC1(OC)CC1 [Compound 42, N-(5-(5-amino-1H-pyrazol-1-yl)-1,3,4-thiadiazol-2-yl)-4-(2,6-dimethoxyphenyl)-3-((1-methoxycyclopropyl)methoxy)-2-oxo-2H-pyran-6-carboxamide]
> 9.30	COc1cccc(OC)c1-c1cc(C(=O)Nc2nnc(-n3nccc3N)s2)oc(=O)c1OCCN1CCSCC1 [Compound 44, N-(5-(5-amino-1H-pyrazol-1-yl)-1,3,4-thiadiazol-2-yl)-4-(2,6-dimethoxyphenyl)-2-oxo-3-(2-thiomorpholinoethoxy)-2H-pyran-6-carboxamide]
> 9.30	COCCOc1c(-c2c(Cl)cccc2C#N)cc(C(=O)Nc2nnc(-n3nccc3N)s2)oc1=O [Compound 45, N-(5-(5-amino-1H-pyrazol-1-yl)-1,3,4-thiadiazol-2-yl)-4-(2-chloro-6-cyanophenyl)-3-(2-methoxyethoxy)-2-oxo-2H-pyran-6-carboxamide]
9.00 to 9.30	COc1cccc(OC)c1-c1cc(C(=O)Nc2nnc(-n3nccc3N)s2)oc(=O)c1OC[C@@H](C)O [Compound 46A, (R)—N-(5-(5-amino-1H-pyrazol-1-yl)-1,3,4-thiadiazol-2-yl)-4-(2,6-dimethoxyphenyl)-3-(2-hydroxypropoxy)-2-oxo-2H-pyran-6-carboxamide]
> 9.30	COc1cccc(OC)c1-c1cc(C(=O)Nc2nnc(-n3nccc3N)s2)oc(=O)c1OC[C@H](C)O [Compound 46B, (S)—N-(5-(5-amino-1H-pyrazol-1-yl)-1,3,4-thiadiazol-2-yl)-4-(2,6-dimethoxyphenyl)-3-(2-hydroxypropoxy)-2-oxo-2H-pyran-6-carboxamide]
8.30 to 9.00	COC[C@H](C)Oc1c(-c2c(OC)cccc2OC)cc(C(=O)Nc2nnc(-n3nccc3N)s2)oc1=O [Compound 47A, (S)—N-(5-(5-amino-1H-pyrazol-1-yl)-1,3,4-thiadiazol-2-yl)-4-(2,6-dimethoxyphenyl)-3-((1-methoxypropan-2-yl)oxy)-2-oxo-2H-pyran-6-carboxamide]
> 9.30	COC[C@@H](C)Oc1c(-c2c(OC)cccc2OC)cc(C(=O)Nc2nnc(-n3nccc3N)s2)oc1=O [Compound 47B, (R)—N-(5-(5-amino-1H-pyrazol-1-yl)-1,3,4-thiadiazol-2-yl)-4-(2,6-dimethoxyphenyl)-3-((1-methoxypropan-2-yl)oxy)-2-oxo-2H-pyran-6-carboxamide]
9.00 to 9.30	COCCOc1c(-c2c(C#N)cccc2CO)cc(C(=O)Nc2nnc(-n3nccc3N)s2)oc1=O [Compound 48, N-(5-(5-amino-1H-pyrazol-1-yl)-1,3,4-thiadiazol-2-yl)-4-(2-cyano-6-(hydroxymethyl)phenyl)-3-(2-methoxyethoxy)-2-oxo-2H-pyran-6-carboxamide]
8.30 to 9.00	COCCOc1c(-c2nc(OC)ccc2OC)cc(C(=O)Nc2nnc(-n3nccc3N)s2)oc1=O [Compound 49, N-(5-(5-amino-1H-pyrazol-1-yl)-1,3,4-thiadiazol-2-yl)-4-(3,6-dimethoxypyridin-2-yl)-3-(2-methoxyethoxy)-2-oxo-2H-pyran-6-carboxamide]
9.00 to 9.30	COCCOc1c(-c2c(OC)cccc2OC)cc(C(=O)Nc2nnc(-c3ncsc3N)s2)oc1=O [Compound 51, N-(5-(5-aminothiazol-4-yl)-1,3,4-thiadiazol-2-yl)-4-(2,6-dimethoxyphenyl)-3-(2-methoxyethoxy)-2-oxo-2H-pyran-6-carboxamide]
> 9.30	COc1cccc(OC)c1-c1cc(C(=O)Nc2nnc(-n3nccc3N)s2)oc(=O)c1OC[C@H](C)OC [Compound 53, (S)-N-(5-(5-amino-1H-pyrazol-1-yl)-1,3,4-thiadiazol-2-yl)-4-(2,6-dimethoxyphenyl)-3-(2-methoxypropoxy)-2-oxo-2H-pyran-6-carboxamide]
9.00 to 9.30	COc1cccc(OC)c1-c1cc(C(=O)Nc2nnc(-n3nccc3N)s2)oc(=O)c1OC[C@@H](C)OC [Compound 54, (R)-N-(5-(5-amino-1H-pyrazol-1-yl)-1,3,4-thiadiazol-2-yl)-4-(2,6-dimethoxyphenyl)-3-(2-methoxypropoxy)-2-oxo-2H-pyran-6-carboxamide]
9.00 to 9.30	COCCOc1c(-c2ncc(Cl)cc2OC)cc(C(=O)Nc2nnc(-n3nccc3N)s2)oc1=O [Compound 58, N-(5-(5-amino-1H-pyrazol-1-yl)-1,3,4-thiadiazol-2-yl)-4-(5-chloro-3-methoxypyridin-2-yl)-3-(2-methoxyethoxy)-2-oxo-2H-pyran-6-carboxamide]
8.30 to 9.00	COCCOc1c(-c2ncc(OC)cc2OC)cc(C(=O)Nc2nnc(-n3nccc3N)s2)oc1=O [Compound 60, N-(5-(5-amino-1H-pyrazol-1-yl)-1,3,4-thiadiazol-2-yl)-4-(3,5-dimethoxypyridin-2-yl)-3-(2-methoxyethoxy)-2-oxo-2H-pyran-6-carboxamide]
8.30 to 9.00	COc1cccnc1-c1cc(C(=O)Nc2nnc(-n3nccc3N)s2)oc(=O)c1OCCOC(F)F [Compound 61, N-(5-(5-amino-1H-pyrazol-1-yl)-1,3,4-thiadiazol-2-yl)-3-(2-(difluoromethoxy)ethoxy)-4-(3-methoxypyridin-2-yl)-2-oxo-2H-pyran-6-carboxamide]
9.00 to 9.30	COC[C@H](CO)Oc1c(-c2c(OC)cccc2OC)cc(C(=O)Nc2nnc(-n3nccc3N)s2)oc1=O [Compound 62A*, (S)—N-(5-(5-amino-1H-pyrazol-1-yl)-1,3,4-thiadiazol-2-yl)-4-(2,6-dimethoxyphenyl)-3-((1-hydroxy-3-methoxypropan-2-yl)oxy)-2-oxo-2H-pyran-6-carboxamide]
9.00 to 9.30	COC[C@@H](CO)Oc1c(-c2c(OC)cccc2OC)cc(C(=O)Nc2nnc(-n3nccc3N)s2)oc1=O [Compound 62B*, (R)—N-(5-(5-amino-1H-pyrazol-1-yl)-1,3,4-thiadiazol-2-yl)-4-(2,6-dimethoxyphenyl)-3-((1-hydroxy-3-methoxypropan-2-yl)oxy)-2-oxo-2H-pyran-6-carboxamide]
9.00 to 9.30	COC[C@H](O)COc1c(-c2c(OC)cccc2OC)cc(C(=O)Nc2nnc(-n3nccc3N)s2)oc1=O [Compound 63A*, (S)—N-(5-(5-amino-1H-pyrazol-1-yl)-1,3,4-thiadiazol-2-yl)-4-(2,6-dimethoxyphenyl)-3-(2-hydroxy-3-methoxypropoxy)-2-oxo-2H-pyran-6-carboxamide]
9.00 to 9.30	COc1cccc(OC)c1-c1cc(C(=O)Nc2nnc(-n3nccc3N)s2)oc(=O)c1OCCN1CC2(CSC2)C1 [Compound 65, 3-(2-(2-thia-6-azaspiro[3.3]heptan-6-yl)ethoxy)-N-(5-(5-amino-1H-pyrazol-1-yl)-1,3,4-thiadiazol-2-yl)-4-(2,6-dimethoxyphenyl)-2-oxo-2H-pyran-6-carboxamide]
9.00 to 9.30	COCCOc1c(-c2c(C#N)ccnc2OC)cc(C(=O)Nc2nnc(-n3nccc3N)s2)oc1=O [Compound 66, N-(5-(5-amino-1H-pyrazol-1-yl)-1,3,4-thiadiazol-2-yl)-4-(4-cyano-2-methoxypyridin-3-yl)-3-(2-methoxyethoxy)-2-oxo-2H-pyran-6-carboxamide]
8.30 to 9.00	COCCOc1c(-c2c(OC)cccc2OCCC#N)cc(C(=O)Nc2nnc(-n3nccc3N)s2)oc1=O [Compound 67, N-(5-(5-amino-1H-pyrazol-1-yl)-1,3,4-thiadiazol-2-yl)-4-(2-(2-cyanoethoxy)-6-methoxyphenyl)-3-(2-methoxyethoxy)-2-oxo-2H-pyran-6-carboxamide]
> 9.30	COc1cccc(OC)c1-c1cc(C(=O)Nc2nnc(-n3nccc3N)s2)oc(=O)c1OCCOCCO [Compound 68, N-(5-(5-amino-1H-pyrazol-1-yl)-1,3,4-thiadiazol-2-yl)-4-(2,6-dimethoxyphenyl)-3-(2-(2-hydroxyethoxy)ethoxy)-2-oxo-2H-pyran-6-carboxamide]
7.70 to 8.30	COc1cccc(OC)c1-c1cc(C(=O)Nc2nnc(-n3nccc3N)s2)oc(=O)c1OCCN1CCCCC1 [Compound 69, N-(5-(5-amino-1H-pyrazol-1-yl)-1,3,4-thiadiazol-2-yl)-4-(2,6-dimethoxyphenyl)-2-oxo-3-(2-(piperidin-1-yl)ethoxy)-2H-pyran-6-carboxamide]
9.00 to 9.30	COCCOc1c(-c2ncccc2OC2CC2)cc(C(=O)Nc2nnc(-n3nccc3N)s2)oc1=O [Compound 70, N-(5-(5-amino-1H-pyrazol-1-yl)-1,3,4-thiadiazol-2-yl)-4-(3-cyclopropoxypyridin-2-yl)-3-(2-methoxyethoxy)-2-oxo-2H-pyran-6-carboxamide]
9.00 to 9.30	COc1cccc(OC)c1-c1cc(C(=O)Nc2nnc(-n3nccc3N)s2)oc(=O)c1OCCN1CC2(CCS2)C1 [Compound 72, 3-(2-(1-thia-6-azaspiro[3.3]heptan-6-yl)ethoxy)-N-(5-(5-amino-1H-pyrazol-1-yl)-1,3,4-thiadiazol-2-yl)-4-(2,6-dimethoxyphenyl)-2-oxo-2H-pyran-6-carboxamide]

Compound	pIC50
COc1cccc(OC)c1-c1cc(C(=O)Nc2nnc(-n3nccc3N)s2)oc(=O)c1OCCC(C)(C)O [Compound 59, N-(5-(5-amino-1H-pyrazol-1-yl)-1,3,4-thiadiazol-2-yl)-4-(2,6-dimethoxyphenyl)-3-(3-hydroxy-3-methylbutoxy)-2-oxo-2H-pyran-6-carboxamide]	> 9.30

Same assay, conditions: compared with Compound 1, from activity classes of Table D

cGAS potency relative to Compound 1	Compound
improved cGAS potency	COCCOc1c(-c2c(O)cccc2Cl)cc(C(=O)Nc2nnc(-n3nccc3N)s2)oc1=O [Compound 41, N-(5-(5-amino-1H-pyrazol-1-yl)-1,3,4-thiadiazol-2-yl)-4-(2-chloro-6-hydroxyphenyl)-3-(2-methoxyethoxy)-2-oxo-2H-pyran-6-carboxamide]
improved cGAS potency	COc1cccc(OC)c1-c1cc(C(=O)Nc2nnc(-n3nccc3N)s2)oc(=O)c1OCCN1CCSCC1 [Compound 44, N-(5-(5-amino-1H-pyrazol-1-yl)-1,3,4-thiadiazol-2-yl)-4-(2,6-dimethoxyphenyl)-2-oxo-3-(2-thiomorpholinoethoxy)-2H-pyran-6-carboxamide]

Same assay, conditions: hcGAS 0.5 nM; ATP 100 μM; GTP 100 μM; dsDNA 25 nM; pH 7.4; 4 h incubation; read-out: hcGAS inhibition IC50 (activity class, Table D)

pIC50	Compound
> 9.30	COCCOc1c(-c2c(O)cccc2Cl)cc(C(=O)Nc2nnc(-n3nccc3N)s2)oc1=O [Compound 41, N-(5-(5-amino-1H-pyrazol-1-yl)-1,3,4-thiadiazol-2-yl)-4-(2-chloro-6-hydroxyphenyl)-3-(2-methoxyethoxy)-2-oxo-2H-pyran-6-carboxamide]
> 9.30	COc1cccc(OC)c1-c1cc(C(=O)Nc2nnc(-n3nccc3N)s2)oc(=O)c1OCCN1CCSCC1 [Compound 44, N-(5-(5-amino-1H-pyrazol-1-yl)-1,3,4-thiadiazol-2-yl)-4-(2,6-dimethoxyphenyl)-2-oxo-3-(2-thiomorpholinoethoxy)-2H-pyran-6-carboxamide]
> 9.30	COCCOc1c(-c2c(Cl)cccc2C#N)cc(C(=O)Nc2nnc(-n3nccc3N)s2)oc1=O [Compound 45, N-(5-(5-amino-1H-pyrazol-1-yl)-1,3,4-thiadiazol-2-yl)-4-(2-chloro-6-cyanophenyl)-3-(2-methoxyethoxy)-2-oxo-2H-pyran-6-carboxamide]
